Patent US20190110476A1, “NOVEL ISOTHIAZOLAMIDES, PROCESSES FOR THEIR PREPARATION AND THEIR USE AS FUNGICIDES” (priority 2014, published 2019)
Marks after values point to notes of the source that are not given here.

Experiment: Measurement of LogP values by HPLC on reversed phase columns (EEC directive 79/831 Annex V.A8)
Type: physicochemical
Details: not given
Summary of the method: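 Following EEC directive 79/831 Annex V.A8, lipophilicity was derived from retention on reversed-phase HPLC columns. Separate values are given per diastereoisomer, and UV lambda-max (200–400 nm) was read at the peak signals.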

Row | SMILES | LogP | LogP [a] | LogP [b]
1 | O=C(NCc1ncc(C(F)(F)F)cc1Cl)c1snc(NC(=O)C2CC2)c1Cl [I-296] | 2.71[a] | – | –
2 | COc1ccc(CNc2nsc(C(=O)N(Cc3cc(Cl)ccc3Br)C3CC3)c2Cl)cc1 [I-989] | 4.98[a] | – | –
3 | Nc1cc(C(=O)NCc2cc(Cl)cc(Cl)c2)sn1 [I-307] | 2.18[a] | – | –
4 | O=C(c1snc(Cl)c1Cl)N(Cc1ccc(F)cc1F)C1CC1 [E-II-014] | – | 4.01^[a] | –
5 | Cc1cc(C)c(CN(C(=O)c2cc(N(Cc3ccccc3)Cc3ccccc3)ns2)C2CC2)c(C)c1 [I-907] | 6.25[a] | – | –
6 | Cc1c(N)nsc1C(=O)NCc1ccc(Cl)nc1 [I-110] | 1.09[a] | – | –
7 | O=C(NCc1ccc(F)cc1)c1cc(N(Cc2ccccc2)Cc2ccccc2)ns1 [I-309] | 4.36[a] | – | –
8 | CC(C)(C)C(=O)Nc1nscc1Cl [Z-A-004] | – | 1.55^[a] | –
9 | CC(C)N(Cc1ccc(Cl)cc1Cl)C(=O)c1snc(N)c1Cl [I-213] | 3.71[a] | – | –
10 | CCC(=O)Nc1nsc(C(=O)NCc2ccc(F)cc2C)c1Cl [I-817] | 2.15[a] | – | –
11 | COc1ccc(CNc2nsc(C(=O)Nc3cccc4c3C(C)CC4(C)C)c2Cl)cc1 (stereo not drawn) [I-880] | 5.42[a] | – | –
12 | COc1ccc(CNc2nsc(C(=O)N(Cc3cc(C)ccc3F)C3CC3)c2Cl)cc1 [I-986] | 4.46[a] | – | –
13 | O=C(c1cc(N(Cc2ccccc2)Cc2ccccc2)ns1)N(Cc1cc(F)ccc1F)C1CC1 [I-991] | 5.25[a] | – | –
14 | Cc1c(N)nsc1C(=O)NCc1ccc(C(F)F)cc1 [I-156] | 1.66[a] | – | –
15 | CCc1ccc(CNC(=O)c2snc(NCc3ccc(OC)cc3)c2Cl)nc1 [I-1193] | 2.34[a] | – | –
16 | COc1ccc(CNc2nsc(C(=O)NC3C(C(C)C)CCCC3C(C)C)c2Cl)cc1 (stereo not drawn) [I-1219] | 6.32[a] | – | –
17 | O=C(NCc1ccccc1F)c1snc(Cl)c1Cl [E-II-008] | – | 3.23^[a] | –
18 | COc1ccc(CNc2nsc(C(=O)N(C3CC3)C3CCCCC3(C)C)c2Cl)cc1 (stereo not drawn) [I-860] | 5.31[a] | – | –
19 | COc1ccc(CNc2nsc(C(=O)NCc3ccc(OC)c(F)c3)c2Cl)cc1 [I-224] | 3.44[a] | – | –
20 | COc1ccc(CNc2nsc(C(=O)NCCc3ccccc3F)c2Cl)cc1 [I-963] | 3.74[a] | – | –
21 | Nc1nsc(C(=S)NCc2ccccc2F)c1Cl [I-1021] | 2.73[a] | – | –
22 | Nc1cc(C(=O)NCc2cccc(Cl)c2Cl)sn1 [I-308] | 2.02[a] | – | –
23 | O=C(NCc1c(F)cc(F)cc1F)c1snc(N=S2CCCC2)c1F [II-081] | – | 1.39^[a] | –
24 | O=C(NCC1CCCCC1)c1cc(N(Cc2ccccc2)Cc2ccccc2)ns1 [I-540] | 5.22[a] | – | –
25 | COc1ccc(CNc2nsc(C(=O)Nc3ccc(Cl)cc3Cl)c2Cl)cc1 [I-867] | 5.22[a] | – | –
26 | CCn1cc(C(C)NC(=O)c2snc(NCc3ccc(OC)cc3)c2Cl)c(C)n1 (stereo not drawn) [I-1349] | 2.73[a] | – | –
27 | CCOc1c(N)nsc1C(=O)NCc1ccc(Cl)cc1 [I-731] | 2.26[a] | – | –

Row | SMILES | LogP | LogP [a] | LogP [b]
28 | CC(=O)N(C(C)=O)c1nsc(C(=O)NCc2ccccc2F)c1Cl [I-101] | 2.64[a] | – | –
29 | COc1ccc(CNc2nsc(C(=O)NCc3cccnc3OC)c2Cl)cc1 [I-1235] | 3.13[a] | – | –
30 | COC(=O)Nc1nsc(C(=O)NCc2ccccc2F)c1Cl [I-239] | 1.98[a] | – | –
31 | O=CNc1cc(C(=O)NCc2ccc(F)cc2F)sn1 [I-430] | 1.79[a] | – | –
32 | COc1ccc(CNc2nsc(C(=O)N(Cc3ccc(Cl)cc3Cl)C3CC3)c2Cl)cc1 [I-930] | 5.08[a] | – | –
33 | Cc1c(N)nsc1C(=O)NCc1c(F)cccc1Cl [I-587] | 1.61[a] | – | –
34 | COc1ccc(CNc2nsc(C(=O)NCCc3ccccn3)c2Cl)cc1 [I-1255] | 1.52[a] | – | –
35 | O=C(NCc1c(F)cc(F)cc1F)c1snc(N=S2CCCC2)c1Cl [II-044] | – | 1.66^[a] | –
36 | O=C(NCc1cc(F)c(F)cc1F)c1snc(N=S2CCCC2)c1F [II-074] | – | 1.53^[a] | –
37 | COc1ccc(CNc2nsc(C(=O)NCC3CC=CCC3)c2Cl)cc1 (stereo not drawn) [I-078] | 3.90[a] | – | –
38 | CCC(NC(=O)c1snc(NCc2ccc(OC)cc2)c1Cl)c1ccccc1 (stereo not drawn) [I-1265] | 4.03[a] | – | –
39 | COc1ccc(CNc2nsc(C(=O)NC3CCc4cc(C(C)(C)C)ccc43)c2Cl)cc1 (stereo not drawn) [I-1331] | 5.22[a] | – | –
40 | CC(C)(C)OC(=O)Nc1nsc(C(=O)O)c1Cl [E-VIII-001] | – | 1.35^[a] | –
41 | Cc1ccc(NC(=O)c2cc(N(Cc3ccccc3)Cc3ccccc3)ns2)cc1Cl [I-906] | 5.68[a] | – | –
42 | COc1ccc(CNC(=O)c2cc(N)ns2)cc1 [I-052] | 1.28[a] | – | –
43 | CN(C)C=Nc1nsc(C(=O)NC2CCCC3CCCCC32)c1Cl (stereo not drawn) [II-038] | – | 3.94^[a] | –
44 | COc1ccc(CNc2nsc(C(=O)N(Cc3c(Cl)cccc3C(F)(F)F)C3CC3)c2Cl)cc1 [I-946] | 4.91[a] | – | –
45 | O=C(Nc1ccccc1)c1snc(N=C(c2ccccc2)c2ccccc2)c1Cl [II-107] | – | 4.62^[a] | –
46 | Cc1c(N)nsc1C(=O)NCc1c(F)cc(F)cc1F [I-583] | 1.69[a] | – | –
47 | COc1ccc(CNc2nsc(C(=O)NCC3(O)CCCCC3)c2Cl)cc1 [I-105] | 3.09[a] | – | –
48 | COc1ccc(CNc2nsc(C(=O)N(Cc3ccccc3)C3CC3)c2Cl)cc1 [I-897] | 4.14[a] | – | –
49 | COc1ccc(CNc2nsc(C(=O)NCc3cc(Cl)ccc3Cl)c2Cl)cc1 [I-393] | 4.34[a] | – | –
50 | Cc1ccc(S(C)=Nc2nsc(C(=O)NCc3cc(F)c(F)cc3F)c2F)cc1 (stereo not drawn) [II-073] | – | 2.87^[a] | –
51 | COc1ccc(CNc2nsc(C(=O)NCc3ncccc3OC)c2Cl)cc1 [I-1271] | 2.70[a] | – | –
52 | COc1ccc(CNc2nsc(C(=O)NCc3cnn(CC(F)(F)F)c3)c2Cl)cc1 [I-1258] | 2.84[a] | – | –
53 | CCCS(CC)=Nc1nsc(C(=O)NCc2c(F)cc(F)cc2F)c1F (stereo not drawn) [II-105] | – | 1.92^[a] | –

Second part, the molecule after the results:

Row | LogP | LogP [a] | LogP [b] | SMILES
54 | 1.23[a] | – | – | COc1ccc(CNC(=O)c2snc(N)c2Cl)cn1 [I-114]
55 | 6.20[a] | – | – | C[C@H](NC(=O)c1snc(N(Cc2ccccc2)Cc2ccccc2)c1C(F)F)C1CCCCC1 [I-263]
56 | – | 3.10^[a] | – | Cc1ccc(S(C)=Nc2nsc(C(=O)NCC3CCCCC3)c2F)cc1 (stereo not drawn) [II-054]
57 | 2.28[a] | – | – | Cc1cccc(NC(=O)c2snc(N)c2Cl)c1 [I-915]
58 | 2.02[a] | – | – | COc1cc(F)ccc1CNC(=O)c1snc(N)c1Cl [I-782]
59 | 4.81[a] | – | – | C[C@H](NC(=O)c1snc(Nc2ccc(F)cc2)c1Cl)C1CCCCC1 [I-063]
60 | 2.78[a] | – | – | C[C@@H](NC(=O)c1snc(N)c1Cl)C1CCCCC1 [I-077]
61 | 2.12[a] | – | – | Nc1nsc(C(=O)N[C@@H]2CCCC[C@H]2Cl)c1I (relative stereo) [I-1565]
62 | 1.47[a] | – | – | Nc1nsc(C(=O)NCC2CCCCO2)c1Cl (stereo not drawn) [I-014]
63 | 4.54[a] | – | – | COc1ccc(CN(C(=O)C(=O)N[C@H](C)C2CCCCC2)c2nsc(C(=O)N[C@H](C)C3CCCCC3)c2Cl)cc1 [I-072]
64 | 4.78[a] | – | – | C[C@H](NC(=O)c1snc(Nc2ccccc2)c1Cl)C1CCCCC1 [I-064]
65 | 2.00[a] | – | – | Nc1nsc(C(=O)NC2CCCCC2)c1C1CC1 [I-360]
66 | 1.83[a] | – | – | Nc1nsc(C(=O)Nc2ccccc2)c1Cl [I-852]
67 | 3.33[a] | – | – | Nc1nsc(C(=O)NC2CCCC3CCCCC32)c1Cl (stereo not drawn) [I-808]
68 | 5.10[b] | – | – | COc1ccc(CNc2nsc(C(=O)NC(Cc3ccccc3)C3CCCCC3)c2Cl)cc1 (stereo not drawn) [I-1079]
69 | – | 2.48 | 2.39 | CC1CCc2ccccc2N1C(=O)c1snc(N)c1Cl (stereo not drawn) [II-101]
70 | 2.66[a] | – | – | CC1(C)CCCCC1NC(=O)c1snc(N)c1Cl (stereo not drawn) [I-082]
71 | – | 2.09 | 2.05 | Nc1nsc(C(=O)N2CCc3cc(F)ccc3C2)c1Cl [II-019]
72 | – | 4.03 | 3.95 | COC(=O)CC(NC(=O)c1snc(Cl)c1Cl)C1CCCCC1 (stereo not drawn) [E-II-030]
73 | 2.96[a] | – | – | C[C@H](NC(=O)c1snc(N)c1C(F)F)C1CCCCC1 [I-270]
74 | 2.28[a] | – | – | CC1OC(C)(C)c2cccc(NC(=O)c3snc(N)c3Cl)c21 (stereo not drawn) [I-879]

Row | LogP | LogP [a] | LogP [b] | SMILES
75 | – | 4.87 | 4.75 | O=C(NC(Cc1ccccc1)C1CC=CCC1)c1snc(Cl)c1Cl (stereo not drawn) [E-II-034]
76 | 2.28[a] | – | – | Cc1cc(CNC(=O)c2snc(N)c2Cl)ccc1F [I-349]
77 | 5.14[a] | – | – | C[C@H](NC(=S)c1snc(NCC(F)(F)F)c1Cl)C1CCCCC1 [I-429]
78 | 2.62[a] | – | – | Nc1nsc(C(=O)N(Cc2ccc(F)cc2F)C2CC2)c1Cl [I-053]
79 | 2.07[a] | – | – | Nc1nsc(C(=O)NCC2CCCCC2(F)F)c1Cl (stereo not drawn) [I-1294]
80 | 3.73[a] | – | – | CC(=O)N(C(C)=O)c1nsc(C(=O)N[C@@H](C)C2CCCCC2)c1Cl [I-094]
81 | 4.59[a] | – | – | COc1ccc(Nc2nsc(C(=O)N[C@@H](C)C3CCCCC3)c2Cl)cc1 [I-068]
82 | 3.74[a] | – | – | Nc1nsc(C(=O)N(Cc2ccc(Cl)cc2Cl)CC2CC2)c1Cl [I-212]
83 | 2.60[a] | – | – | CC1(C)CC(CNC(=O)c2snc(N)c2Br)C1 [I-842]
84 | 1.91[a] | – | – | Nc1nsc(C(=O)NCc2cccc(F)c2F)c1Cl [I-120]
85 | 2.27[a] | – | – | Cc1cccc(NC(=O)c2snc(N)c2Cl)c1C [I-925]
86 | 2.46[a] | – | – | CC(NC(=O)c1snc(N)c1Cl)c1ccccc1Cl (stereo not drawn) [I-142]
87 | 3.05[a] | – | – | C#Cc1c(NC(=O)C(F)(F)F)nsc1C(=O)NCC1CCCCC1 [I-609]
88 | 2.48[a] | – | – | Nc1nsc(C(=O)NCc2ccc(C3CC3)cc2)c1C1CC1 [I-606]
89 | 2.18[a] | – | – | CCOc1c(N)nsc1C(=O)NCC1CCCC1 [I-725]
90 | 1.84[a] | – | – | Nc1nsc(C(=O)NCc2cccc(F)c2)c1Cl [I-026]
91 | 2.78[a] | – | – | Nc1nsc(C(=O)N(C2CCCCC2)C2CC2)c1Cl [I-980]
92 | – | 5.39^[a] | – | CC(C)(NC(=O)c1snc(Cl)c1Cl)C1CCCCC1 [E-II-013]
93 | 2.82[a] | – | – | Nc1nsc(C(=O)NC2(C3CCCCC3)CC2)c1Cl [I-143]
94 | 2.15[a] | – | – | Nc1nsc(C(=O)NCc2cccc(Cl)c2)c1Cl [I-021]

Same assay, conditions: HPLC LC-UV, acidic range, 0.1% formic acid in water and acetonitrile as eluent

Row | SMILES | chromatographic logP
95 | CCOC(=O)c1snc(N(Cc2ccccc2)Cc2ccccc2)c1C(F)F [E-VII-023, ethyl 3-(dibenzylamino)-4-(difluoromethyl)-1,2-thiazole-5-carboxylate] | 5.68
